Test results published in US20110245292A1, “2-HYDROXY-ETHANESULFONATE SALT” (AstraZeneca AB, priority 2008, published 2011).
Counter-ions that a name gives are not always drawn.

Assay: Gravimetric Vapour Sorption (GVS)
Type: physicochemical
Experimental: Gravimetric Vapour Sorption (GVS) profiles were measured using a Surface Measurements Systems Dynamic Vapour Sorption DVS-1 or a DVS Advantage instrument. The solid sample ca. 1-5 mg was placed into a glass vessel and the weight of the sample was recorded during a dual cycle step method (40 to 90 to 0 to 90 to 0% relative humidity (RH), in steps of 10% RH).

Which results are given for O[C@](c1ccccc1)(c1cc(C[N+]23CCC(CC2)[C@@H](Oc2cccc(F)c2)C3)on1)C1CCCCC1.[Cl-] [(R)-1-[3-((R)-Cyclohexyl-hydroxy-phenyl-methyl)-isoxazol-5-ylmethyl]-3-(3-fluoro-phenoxy)-1-azonia-bicyclo[2.2.2]octane chloride]?
GVS mass increase, 1st cycle (1st cycle, sample of preparation 1 (step a)): approximately 5%; GVS mass increase, 2nd cycle (2nd cycle, sample of preparation 1 (step a)): ~6.5%

With O[C@](c1ccccc1)(c1cc(C[N+]23CCC(CC2)[C@@H](Oc2cccc(F)c2)C3)on1)C1CCCCC1 [Salt Form A, (R)-1-[3-((R)-cyclohexyl-hydroxy-phenyl-methyl)-isoxazol-5-ylmethyl]-3-(3-fluoro-phenoxy)-1-azonia-bicyclo[2.2.2]octane 2-hydroxy-ethanesulfonate] as the molecule, how does the “GVS weight increase at 80% RH” value (80% RH (±0.3%), material of preparation 2) read?
Its value is 0.15%.

And the “GVS mass increase at 80% RH” value (80% RH, material of preparation 1)?
Its value is “no mass increase”.
